Experimental data taken from article doi:10.1101/2023.10.21.563410v1 (biorxiv, 2023).

How the values were obtained:
OATP1B3 [1] = molecular target: T1, OATP1B3 (Homo sapiens, UniProt Q9NPD5); experiment: fluorimetric uptake of fluorescein-methotrexate; assay type: cell-based; settings: racemic compound
T1 sequence (Q9NPD5 1-702): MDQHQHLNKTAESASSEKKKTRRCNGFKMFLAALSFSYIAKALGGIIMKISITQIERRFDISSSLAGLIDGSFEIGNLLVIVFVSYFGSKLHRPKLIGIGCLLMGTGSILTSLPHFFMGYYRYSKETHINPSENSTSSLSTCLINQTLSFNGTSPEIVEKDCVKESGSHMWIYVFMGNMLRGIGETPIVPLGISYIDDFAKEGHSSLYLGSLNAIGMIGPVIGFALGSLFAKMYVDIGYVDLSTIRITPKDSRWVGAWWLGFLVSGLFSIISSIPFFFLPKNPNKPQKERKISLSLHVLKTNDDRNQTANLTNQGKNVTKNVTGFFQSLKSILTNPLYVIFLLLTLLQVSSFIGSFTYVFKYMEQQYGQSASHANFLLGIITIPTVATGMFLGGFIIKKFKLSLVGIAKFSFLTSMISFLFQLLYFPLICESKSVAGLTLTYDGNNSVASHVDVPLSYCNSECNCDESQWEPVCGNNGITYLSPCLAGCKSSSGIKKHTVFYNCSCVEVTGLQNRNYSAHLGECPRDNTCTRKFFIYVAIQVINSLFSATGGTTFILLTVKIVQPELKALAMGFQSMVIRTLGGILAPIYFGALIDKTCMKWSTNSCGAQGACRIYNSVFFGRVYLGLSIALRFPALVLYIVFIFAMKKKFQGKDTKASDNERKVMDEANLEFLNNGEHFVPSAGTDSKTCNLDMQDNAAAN

OATP1B1 [2] = molecular target: T2, OATP1B1 (Homo sapiens, UniProt Q9Y6L6); experiment: fluorimetric uptake of fluorescein-methotrexate; assay type: cell-based; settings: racemic compound
T2 sequence (Q9Y6L6 1-691): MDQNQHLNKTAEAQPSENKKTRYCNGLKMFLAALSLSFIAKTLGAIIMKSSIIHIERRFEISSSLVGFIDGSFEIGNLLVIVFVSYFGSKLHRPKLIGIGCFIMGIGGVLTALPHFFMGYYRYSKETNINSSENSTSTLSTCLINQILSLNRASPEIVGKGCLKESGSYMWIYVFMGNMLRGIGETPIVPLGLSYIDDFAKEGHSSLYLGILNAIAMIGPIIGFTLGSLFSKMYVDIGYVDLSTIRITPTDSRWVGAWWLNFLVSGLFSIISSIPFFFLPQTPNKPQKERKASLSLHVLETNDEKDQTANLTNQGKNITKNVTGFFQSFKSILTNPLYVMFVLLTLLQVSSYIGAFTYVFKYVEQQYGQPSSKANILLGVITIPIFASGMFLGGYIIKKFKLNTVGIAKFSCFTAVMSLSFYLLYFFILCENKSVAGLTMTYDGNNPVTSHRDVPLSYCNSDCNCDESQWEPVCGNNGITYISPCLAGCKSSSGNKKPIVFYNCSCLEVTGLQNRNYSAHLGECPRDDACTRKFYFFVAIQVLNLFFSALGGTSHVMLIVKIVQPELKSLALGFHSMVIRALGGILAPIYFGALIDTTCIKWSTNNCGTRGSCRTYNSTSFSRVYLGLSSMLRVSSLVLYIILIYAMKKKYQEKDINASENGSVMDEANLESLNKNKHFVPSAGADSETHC

BSEP = BSEP (Homo sapiens, UniProt O95342); experiment: uptake of 3H-taurocholic acid in membrane vesicles, scintillation counting; assay type: biochemical; settings: read-out: % of control activity at 10 μM
Sequence of BSEP (O95342 whole entry): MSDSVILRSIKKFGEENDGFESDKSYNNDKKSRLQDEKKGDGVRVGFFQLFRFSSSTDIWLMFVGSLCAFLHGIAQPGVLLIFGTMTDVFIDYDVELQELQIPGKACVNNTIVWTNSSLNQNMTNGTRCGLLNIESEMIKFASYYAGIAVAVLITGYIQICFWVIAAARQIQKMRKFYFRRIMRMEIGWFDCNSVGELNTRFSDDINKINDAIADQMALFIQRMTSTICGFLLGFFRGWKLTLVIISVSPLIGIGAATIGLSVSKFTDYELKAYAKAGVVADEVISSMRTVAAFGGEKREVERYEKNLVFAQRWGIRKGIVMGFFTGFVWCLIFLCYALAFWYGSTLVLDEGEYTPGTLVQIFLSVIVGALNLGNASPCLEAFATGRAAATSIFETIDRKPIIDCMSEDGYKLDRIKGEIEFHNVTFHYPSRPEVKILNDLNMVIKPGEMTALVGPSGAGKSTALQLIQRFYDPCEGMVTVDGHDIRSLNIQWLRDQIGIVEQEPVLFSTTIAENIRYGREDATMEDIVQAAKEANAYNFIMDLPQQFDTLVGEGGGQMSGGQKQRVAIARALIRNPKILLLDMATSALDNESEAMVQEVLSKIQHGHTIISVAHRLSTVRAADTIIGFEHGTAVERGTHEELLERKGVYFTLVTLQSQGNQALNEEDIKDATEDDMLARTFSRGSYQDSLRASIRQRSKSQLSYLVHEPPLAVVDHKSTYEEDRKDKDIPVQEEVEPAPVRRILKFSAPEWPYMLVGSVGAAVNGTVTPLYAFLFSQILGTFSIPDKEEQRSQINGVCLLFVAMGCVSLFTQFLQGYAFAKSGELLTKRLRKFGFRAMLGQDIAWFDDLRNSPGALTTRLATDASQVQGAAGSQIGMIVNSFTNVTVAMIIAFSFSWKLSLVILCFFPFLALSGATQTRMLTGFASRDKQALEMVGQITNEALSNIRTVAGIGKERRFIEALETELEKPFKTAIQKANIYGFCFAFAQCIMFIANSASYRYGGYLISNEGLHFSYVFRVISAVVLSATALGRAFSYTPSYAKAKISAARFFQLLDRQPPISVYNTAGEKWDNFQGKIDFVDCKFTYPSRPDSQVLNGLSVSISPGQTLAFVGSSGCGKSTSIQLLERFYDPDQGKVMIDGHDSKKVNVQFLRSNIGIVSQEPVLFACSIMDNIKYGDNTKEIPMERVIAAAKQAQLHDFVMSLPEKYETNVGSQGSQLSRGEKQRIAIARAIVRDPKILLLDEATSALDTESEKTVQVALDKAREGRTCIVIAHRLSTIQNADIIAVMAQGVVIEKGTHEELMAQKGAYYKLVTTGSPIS

MRP2 = MRP2 (Homo sapiens, UniProt Q92887); experiment: fluorimetric uptake of […]; assay type: cell-based
Sequence of MRP2 (Q92887 whole entry): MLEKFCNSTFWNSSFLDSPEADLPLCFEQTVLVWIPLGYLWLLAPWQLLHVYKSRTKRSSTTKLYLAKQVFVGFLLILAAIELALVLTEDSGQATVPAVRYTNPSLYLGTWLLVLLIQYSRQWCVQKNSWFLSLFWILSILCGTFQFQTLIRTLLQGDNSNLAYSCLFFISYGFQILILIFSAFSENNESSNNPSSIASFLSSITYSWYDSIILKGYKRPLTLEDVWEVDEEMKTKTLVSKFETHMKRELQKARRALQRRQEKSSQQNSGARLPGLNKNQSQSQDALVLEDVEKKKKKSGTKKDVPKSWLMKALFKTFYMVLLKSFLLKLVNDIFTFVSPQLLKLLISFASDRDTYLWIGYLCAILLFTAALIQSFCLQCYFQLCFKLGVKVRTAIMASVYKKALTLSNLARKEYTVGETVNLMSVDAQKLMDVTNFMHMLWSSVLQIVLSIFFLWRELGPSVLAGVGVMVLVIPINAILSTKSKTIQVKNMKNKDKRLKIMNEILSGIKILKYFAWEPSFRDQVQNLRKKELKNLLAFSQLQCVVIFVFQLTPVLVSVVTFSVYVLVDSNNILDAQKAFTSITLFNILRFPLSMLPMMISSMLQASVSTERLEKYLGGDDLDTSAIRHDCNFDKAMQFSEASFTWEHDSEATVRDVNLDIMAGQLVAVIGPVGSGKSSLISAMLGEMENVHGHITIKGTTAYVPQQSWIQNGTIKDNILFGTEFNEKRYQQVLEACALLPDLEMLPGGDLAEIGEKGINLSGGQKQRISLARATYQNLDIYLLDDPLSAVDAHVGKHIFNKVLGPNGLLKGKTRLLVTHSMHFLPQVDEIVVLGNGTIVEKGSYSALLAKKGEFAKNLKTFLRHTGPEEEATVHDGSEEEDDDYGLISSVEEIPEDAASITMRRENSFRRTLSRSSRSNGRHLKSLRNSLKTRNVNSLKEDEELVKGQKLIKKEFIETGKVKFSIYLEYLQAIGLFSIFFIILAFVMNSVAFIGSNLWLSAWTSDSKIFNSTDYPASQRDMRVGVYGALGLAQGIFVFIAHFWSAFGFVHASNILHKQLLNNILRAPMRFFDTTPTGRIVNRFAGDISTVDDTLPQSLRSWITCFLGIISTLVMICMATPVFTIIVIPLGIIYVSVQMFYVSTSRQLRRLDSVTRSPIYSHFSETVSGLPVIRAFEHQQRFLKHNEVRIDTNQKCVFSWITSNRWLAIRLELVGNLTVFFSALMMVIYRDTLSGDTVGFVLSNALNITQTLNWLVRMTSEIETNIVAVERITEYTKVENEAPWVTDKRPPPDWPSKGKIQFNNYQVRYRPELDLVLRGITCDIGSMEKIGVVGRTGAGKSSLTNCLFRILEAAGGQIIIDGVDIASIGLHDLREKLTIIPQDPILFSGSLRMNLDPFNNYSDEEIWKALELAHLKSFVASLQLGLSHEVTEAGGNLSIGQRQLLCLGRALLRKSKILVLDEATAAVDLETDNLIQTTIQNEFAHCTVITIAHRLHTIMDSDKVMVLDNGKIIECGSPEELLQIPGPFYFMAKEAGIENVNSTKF

hPXR = molecular target: T3, hPXR (Homo sapiens, UniProt O75469); experiment: luciferase reporter gene assay; assay type: cell-based
T3 sequence (O75469 1-434): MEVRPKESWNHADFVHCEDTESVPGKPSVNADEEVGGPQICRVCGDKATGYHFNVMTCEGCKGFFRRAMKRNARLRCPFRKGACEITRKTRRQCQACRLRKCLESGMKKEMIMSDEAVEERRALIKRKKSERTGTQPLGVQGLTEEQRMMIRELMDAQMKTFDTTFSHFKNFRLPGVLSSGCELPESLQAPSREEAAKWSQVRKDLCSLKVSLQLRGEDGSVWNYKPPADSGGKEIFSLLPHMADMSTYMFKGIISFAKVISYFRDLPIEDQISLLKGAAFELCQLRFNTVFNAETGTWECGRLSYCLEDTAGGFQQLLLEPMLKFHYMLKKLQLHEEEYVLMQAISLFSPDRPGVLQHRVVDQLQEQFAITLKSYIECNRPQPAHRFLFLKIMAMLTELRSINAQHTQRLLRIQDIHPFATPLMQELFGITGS

OATP1B1 [3] = molecular target: T2, OATP1B1; experiment: fluorimetric uptake of fluorescein-methotrexate; assay type: cell-based
OATP1B3 [4] = molecular target: T1, OATP1B3; experiment: fluorimetric uptake of fluorescein-methotrexate; assay type: cell-based

**Q.** Which results are given for `C#CCC(O)(c1ccncc1)c1cc2ccccc2n1S(=O)(=O)c1ccccc1` (racemic) [FKK6, 1-(1-(phenylsulfonyl)-1H-indol-2-yl)-(1-pyridin-4-yl)-but-3-yn-1-ol]?
**A.** % of control activity at 10 μM (OATP1B3 [1]): 36%; % of control activity at 10 μM (OATP1B1 [2]): 34%; remaining activity at 10 µM (BSEP): 44%

**Q.** With `CN(C)C(=O)CCSC(SCCC(=O)O)c1cccc(/C=C/c2ccc3ccc(Cl)cc3n2)c1` (centres unmarked) [MK571] as the molecule, how does the IC50 (MRP2) read?
**A.** Its IC50 is 22 µM.

**Q.** `C#CCC(O)(c1cc[n+]([O-])cc1)c1cc2ccccc2n1S(=O)(=O)c1ccccc1` (centres unmarked) [compound 6, 4-(1-hydroxy-1-(1-(phenylsulfonyl)-1H-indol-2-yl)but-3-yn-1-yl)pyridine 1-oxide] was tested. Which EC50 (hPXR) did it give?
**A.** The EC50 was 7.8 µM.

**Q.** With `C#CCC(O)(c1ccncc1)c1cc2ccccc2n1S(=O)(=O)c1ccc(O)cc1` (centres unmarked) [compound 9, 4-((2-(1-hydroxy-1-(pyridin-4-yl)but-3-yn-1-yl)-1H-indol-1-yl)sulfonyl)phenol] as the molecule, how does the EC50 (hPXR) read?
**A.** Its EC50 is 5.1 µM.

**Q.** How did the IC50 (OATP1B1 [3]) turn out when `CO[C@H]1/C=C/O[C@@]2(C)Oc3c(C)c(O)c4c(O)c(c(/C=N/N5CCN(C)CC5)c(O)c4c3C2=O)NC(=O)/C(C)=C\C=C\[C@H](C)[C@H](O)[C@@H](C)[C@@H](O)[C@@H](C)[C@H](OC(C)=O)[C@@H]1C` [rifampicin] was run?
**A.** The IC50 was 3.4 µM.

**Q.** What about the IC50 (OATP1B3 [4]) of the same molecule?
**A.** The IC50 was 3.9 µM.
